ChEMBL document CHEMBL3861949 (Medchemcomm, 2016)

Key:
Isoleucine--tRNA ligase [1] = molecular target: Isoleucine--tRNA ligase (Thermus thermophilus (strain HB8 / ATCC 27634 / DSM 579), UniProt P56690, H581L/L583H); assay: Inhibition of recombinant Thermus thermophilus HB8 IleRS H581L/L583H double mutant assessed as suppression of L-[14C]isoleucyl-tRNA(Ile) formation
Isoleucine--tRNA ligase [2] = molecular target: Isoleucine--tRNA ligase (Thermus thermophilus (strain HB8 / ATCC 27634 / DSM 579), UniProt P56690, H581S/L583I); assay: Inhibition of recombinant Thermus thermophilus HB8 IleRS H581S/L583I double mutant assessed as suppression of L-[14C]isoleucyl-tRNA(Ile) formation
Isoleucine--tRNA ligase [3] = molecular target: T1, Isoleucine--tRNA ligase (Thermus thermophilus (strain HB8 / ATCC 27634 / DSM 579), UniProt P56690); assay: Inhibition of recombinant Thermus thermophilus HB8 wild type IleRS assessed as suppression of L-[14C]isoleucyl-tRNA(Ile) formation
T1 sequence (P56690 whole entry): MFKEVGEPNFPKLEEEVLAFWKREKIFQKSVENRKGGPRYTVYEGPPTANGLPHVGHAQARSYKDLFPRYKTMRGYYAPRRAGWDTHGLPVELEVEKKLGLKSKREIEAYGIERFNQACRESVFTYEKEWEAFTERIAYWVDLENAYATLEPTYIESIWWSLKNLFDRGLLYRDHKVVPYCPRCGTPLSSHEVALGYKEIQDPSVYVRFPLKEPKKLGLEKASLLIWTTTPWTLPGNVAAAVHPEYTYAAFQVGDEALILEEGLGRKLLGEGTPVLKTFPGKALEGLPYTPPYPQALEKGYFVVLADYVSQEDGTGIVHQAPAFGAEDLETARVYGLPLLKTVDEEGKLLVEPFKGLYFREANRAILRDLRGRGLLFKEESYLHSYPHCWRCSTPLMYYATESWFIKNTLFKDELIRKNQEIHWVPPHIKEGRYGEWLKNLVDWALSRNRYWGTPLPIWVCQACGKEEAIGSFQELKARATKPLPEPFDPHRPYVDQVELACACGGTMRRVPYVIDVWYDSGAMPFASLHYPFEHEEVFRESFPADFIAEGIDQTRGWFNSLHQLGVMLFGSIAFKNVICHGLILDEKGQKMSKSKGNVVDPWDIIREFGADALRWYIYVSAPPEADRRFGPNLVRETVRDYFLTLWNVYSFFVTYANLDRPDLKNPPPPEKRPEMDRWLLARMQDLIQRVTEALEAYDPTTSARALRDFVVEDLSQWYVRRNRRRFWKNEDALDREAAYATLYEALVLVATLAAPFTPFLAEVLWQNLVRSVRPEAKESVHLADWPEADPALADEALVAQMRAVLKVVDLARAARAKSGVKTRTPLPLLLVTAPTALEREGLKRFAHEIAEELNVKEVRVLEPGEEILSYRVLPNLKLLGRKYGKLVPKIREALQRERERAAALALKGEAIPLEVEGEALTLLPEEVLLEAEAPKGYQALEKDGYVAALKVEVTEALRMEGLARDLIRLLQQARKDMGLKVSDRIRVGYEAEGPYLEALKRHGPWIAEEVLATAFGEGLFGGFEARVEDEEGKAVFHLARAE

Isoleucine--tRNA ligase [4] = molecular target: Isoleucine--tRNA ligase (Thermus thermophilus (strain HB8 / ATCC 27634 / DSM 579), UniProt P56690, L583F); assay: Inhibition of recombinant Thermus thermophilus HB8 IleRS L583F mutant assessed as suppression of L-[14C]isoleucyl-tRNA(Ile) formation
Isoleucine--tRNA ligase [5] = molecular target: Isoleucine--tRNA ligase (Thermus thermophilus (strain HB8 / ATCC 27634 / DSM 579), UniProt P56690, H581N/L583F); assay: Inhibition of recombinant Thermus thermophilus HB8 IleRS H581N/L583F double mutant assessed as suppression of L-[14C]isoleucyl-tRNA(Ile) formation
Plasmodium berghei = assay: Antimalarial activity against liver stage of Plasmodium berghei ANKA; assay type: functional
[6] = Cytotoxicity against human MRC5 cells; assay type: toxicity, cell-based
[7] = Inhibition of bovine liver TrpRS assessed as suppression of L-[5-3H]tryptophanyl-tRNA formation after 10 mins by liquid scintillation counting method; design: species or system Bos taurus
[8] = Inhibition of Escherichia coli TrpRS assessed as suppression of L-[5-3H]tryptophanyl-tRNA formation after 10 mins by liquid scintillation counting method
[9] = Inhibition of Plasmodium falciparum Lysyl-tRNA ligase expressed in Escherichia coli Tuner (DE3) cells assessed as suppression of L-lysine-tRNA(Lys) formation in presence of AMP-Alexa633 tracer after 4 hrs by fluorescence polarization assay
Saccharomyces cerevisiae [10] = assay: Ratio of IC50 for Saccharomyces cerevisiae wild type KRS1 to IC50 for Saccharomyces cerevisiae KRS1 Thr340Ser mutant
Saccharomyces cerevisiae [11] = assay: Ratio of IC50 for Saccharomyces cerevisiae wild type KRS1 to IC50 for Saccharomyces cerevisiae KRS1 Gln324Val mutant
[12] = Selectivity ratio of IC50 for human Lysyl-tRNA ligase to IC50 for Plasmodium falciparum Lysyl-tRNA ligase
Saccharomyces cerevisiae [13] = assay: Ratio of IC50 for Saccharomyces cerevisiae wild type KRS1 to IC50 for Saccharomyces cerevisiae KRS1 Gln324Val/Thr340Ser mutant

Isoleucine--tRNA ligase (Thermus thermophilus (strain HB8 / ATCC 27634 / DSM 579), UniProt P56690, H581N/L583F), sequence (P56690 whole entry H581N/L583F): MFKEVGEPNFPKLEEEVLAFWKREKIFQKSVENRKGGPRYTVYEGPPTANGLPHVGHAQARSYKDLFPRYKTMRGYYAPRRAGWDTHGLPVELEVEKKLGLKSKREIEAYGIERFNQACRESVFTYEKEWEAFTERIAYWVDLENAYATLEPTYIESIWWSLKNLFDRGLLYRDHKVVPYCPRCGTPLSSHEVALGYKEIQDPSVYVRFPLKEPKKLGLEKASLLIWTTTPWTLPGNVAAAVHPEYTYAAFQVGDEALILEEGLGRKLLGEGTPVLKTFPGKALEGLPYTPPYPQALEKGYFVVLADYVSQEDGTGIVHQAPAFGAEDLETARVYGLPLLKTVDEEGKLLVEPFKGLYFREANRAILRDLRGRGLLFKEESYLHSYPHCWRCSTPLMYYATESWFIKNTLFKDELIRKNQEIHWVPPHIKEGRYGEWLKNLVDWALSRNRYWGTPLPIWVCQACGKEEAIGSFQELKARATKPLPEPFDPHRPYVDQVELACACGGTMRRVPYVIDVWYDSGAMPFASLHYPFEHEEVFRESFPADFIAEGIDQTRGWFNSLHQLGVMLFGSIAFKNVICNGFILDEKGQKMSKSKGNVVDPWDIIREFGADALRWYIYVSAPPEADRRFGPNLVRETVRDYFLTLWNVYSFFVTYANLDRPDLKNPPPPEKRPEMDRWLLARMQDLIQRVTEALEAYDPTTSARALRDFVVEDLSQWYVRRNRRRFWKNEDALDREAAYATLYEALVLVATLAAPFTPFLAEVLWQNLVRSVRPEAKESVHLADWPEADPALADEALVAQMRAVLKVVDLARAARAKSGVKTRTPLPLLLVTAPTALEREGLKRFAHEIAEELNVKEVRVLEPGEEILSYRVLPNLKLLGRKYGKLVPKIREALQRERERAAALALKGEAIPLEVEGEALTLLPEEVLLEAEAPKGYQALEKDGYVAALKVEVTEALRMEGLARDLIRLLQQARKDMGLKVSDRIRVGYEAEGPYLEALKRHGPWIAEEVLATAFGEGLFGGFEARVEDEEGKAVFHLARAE
Isoleucine--tRNA ligase (Thermus thermophilus (strain HB8 / ATCC 27634 / DSM 579), UniProt P56690, H581S/L583I), sequence (P56690 whole entry H581S/L583I): as the sequence (P56690 whole entry H581N/L583F) above, with N581S, F583I counted along it
Isoleucine--tRNA ligase (Thermus thermophilus (strain HB8 / ATCC 27634 / DSM 579), UniProt P56690, H581L/L583H), sequence (P56690 whole entry H581L/L583H): as the sequence (P56690 whole entry H581N/L583F) above, with N581L, F583H counted along it
Isoleucine--tRNA ligase (Thermus thermophilus (strain HB8 / ATCC 27634 / DSM 579), UniProt P56690, L583F), sequence (P56690 whole entry L583F): as the sequence (P56690 whole entry H581N/L583F) above, with N581H counted along it

Compound `C/C(=C\C(=O)OCCCCCCCCC(=O)O)C[C@@H]1OC[C@H](C[C@@H]2O[C@H]2[C@@H](C)[C@H](C)O)[C@@H](O)[C@H]1O` [MUPIROCIN] has a Ki (Isoleucine--tRNA ligase [1]) of 2.31 µM, a Ki (Isoleucine--tRNA ligase [2]) of 15 µM and a Ki (Isoleucine--tRNA ligase [3]) of 0.25 µM. The Ki (Isoleucine--tRNA ligase [4]) was 0.06 µM and the Ki (Isoleucine--tRNA ligase [5]) was 2.73 µM.
With `O=c1c2cc(Cl)c(Br)cc2ncn1C[C@@H](O)C[C@H]1NCCC[C@@H]1O` the EC50 (Plasmodium berghei) was 0.014 µM.
In the case of `C[C@@H]1C[C@H](C)C[C@H](C)[C@@H](O)CC(=O)O[C@H]([C@@H]2CCC[C@H]2C(=O)O)C/C=C/C=C(/C#N)[C@H](O)[C@@H](C)C1` [BORRELIDIN], the Activity [6] is reported as 201 ng/mL.
Compound `C[C@@H]1C[C@H](C)C[C@H](C)[C@@H](O)CC(=O)O[C@H]([C@@H]2CCC[C@H]2C(=O)OCc2cn(CSc3ccccc3)nn2)C/C=C/C=C(/C#N)[C@H](O)[C@@H](C)C1` has an Activity [6] of 16800 ng/mL.
For `CNC1=NC(=O)[C@H]([C@H](C)c2c[nH]c3ccccc23)O1` [INDOMYCIN], the IC50 [7] was 4040 µM and the IC50 [8] was 0.00925 µM.
Work on `O=C(CC1NCCCC1O)Cn1cnc2cc(Br)c(Cl)cc2c1=O` (stereo unspecified) [HALOFUGINONE] yielded an EC50 (Plasmodium berghei) of 0.017 µM.
`C[C@H]1CCC[C@H](CC2Cc3cc(O)cc(O)c3C(=O)O2)O1` (stereo partly specified) gave an IC50 [9] of 0.04 µM, a Ratio IC50 (Saccharomyces cerevisiae [10]) of 10.4 and a Ratio IC50 (Saccharomyces cerevisiae [11]) of 5.7. The Ratio IC50 [12] was greater than 100 and the Ratio IC50 (Saccharomyces cerevisiae [13]) was 38.7.
